Measurements from patent publication US6916915B1, “Stressor regulated genes” (Duke University, priority 1998, dated 2005).

System: C. elegans
Assay: Reverse-Northern dot-blot analysis of steady-state mRNA levels after cadmium exposure
Assay type: in vivo, Caenorhabditis elegans
Details: for Fold-change in mRNA levels following cadmium exposure, DDRT25: clone DDRT25; for Fold-change in mRNA levels following cadmium exposure, DDRT26: clone DDRT26; for Fold-change in mRNA levels following cadmium exposure, DDRT28: clone DDRT28; for Fold-change in mRNA levels following cadmium exposure, DDRT29: clone DDRT29; for Fold-change in mRNA levels following cadmium exposure, DDRT30: clone DDRT30; for Fold-change in mRNA levels following cadmium exposure, DDRT32: clone DDRT32; for Fold-change in mRNA levels following cadmium exposure, DDRT33D: clone DDRT33D; for Fold-change in mRNA levels following cadmium exposure, DDRT33U: clone DDRT33U; for Fold-change in mRNA levels following cadmium exposure, DDRT34: clone DDRT34; for Fold-change in mRNA levels following cadmium exposure, DDRT35: clone DDRT35; for Fold-change in mRNA levels following cadmium exposure, DDRT40: clone DDRT40; for Fold-change in mRNA levels following cadmium exposure, DDRT41: clone DDRT41; for Fold-change in mRNA levels following cadmium exposure, DDRT48: clone DDRT48; for Fold-change in mRNA levels following cadmium exposure, DDRT50: clone DDRT50; for Fold-change in mRNA levels following cadmium exposure, VL9: clone VL9; for Fold-change in mRNA levels following cadmium exposure, VL11: clone VL11; for Fold-change in mRNA levels following cadmium exposure, VL19: clone VL19; for Fold-change in mRNA levels following cadmium exposure, VL20: clone VL20; for Fold-change in mRNA levels following cadmium exposure, VL21: clone VL21
Method: Growth and isolation of C. elegans—The N2 strain of C. elegans was grown in liquid S medium (0.1M NaCl, 50 mM potassium phosphate, pH 6.0, 5 μg/ml cholesterol, 10 mM potassium citrate, 3 mM CaCl2, 3 mM MgCl2, 50 μM EDTA, 25 μM FeSO4, 10 μM MnCl2, 10 μM ZnSO4 and 1 μM CuSO4) using E. coli OP50 as a food source (Brenner, S. (1974) Genetics 77, 71-94). In experiments where nematodes were exposed to cadmium, the medium was supplemented with 100 μM CdCl2 (Freedman, J. H. et al. (1993) J. Biol. Chem. 268, 2554-2564). C. elegans were grown in the presence of metal for 8 h or 24 h at ˜20° C. Nematodes were then collected following centrifugation at 800×g for 5 min. Pellets were suspended in 5 mM NaCl containing 35% sucrose (final concentration) and viable nematodes were collected from the top of the solution following centrifugation at 1000×g for 5 min at 4° C. Nematodes were then washed three times by suspension in M9 buffer (22 mM KH2PO4, 42 mM Na2HPO4, 85 mM NaCl, 1 mM MgSO4) followed by sedimentation at 800×g. Washed nematode pellets were finally suspended in a small volume of M9 buffer, rapidly frozen in liquid nitrogen and stored at −80° C.
RNA isolation—Total RNA was isolated from mix-stage populations of C. elegans exposed to 100 μM CdCl2 for 8 h and 24 h and control, non-exposed nematodes. Frozen worms were first ground into a fine powder using a liquid nitrogen-cooled mortar and pestle. Powdered C. elegans (200 mg) were then homogenized in 2 ml of TRIzol (GIBCO/BRL). RNA was then collected from the aqueous phase following the addition of chloroform, precipitated by adding isopropyl alcohol and then air-dried. The dried RNA pellet was then dissolved in diethyl pyrocarbonate (DEPC)-treated water. For some experiments, poly(A^+) RNA was subsequently isolated using the Poly(A) Tract System following manufacturer's instructions (Promega).
Reverse-Northern dot-blot analysis—Changes in the steady-state levels of differentially expressed mRNAs in C. elegans following cadmium-exposure were also determined by reverse-Northern dot-blot analysis by the modified procedure of Zhang et al. (Cummins, C. et al. (1988) Mol. Cell. Biol 8, 5334-5349). Briefly, differentially expressed cDNAs that were previously cloned into pGEM-T were amplified using primers that anneal to the T7 and SP6 RNA polymerase binding sites, which flank the cDNA insert. cDNAs were amplified and subsequently purified using a PCR-spin column (QIAGEN). Approximately 100 ng of each amplified cDNA were denatured by mixing with 0.1N NaOH (final concentration) and incubating at 100° C. for 5 min. The solution was neutralized following the addition of 3×SSC (final concentration) and then the volume adjusted to 700 μl with dH2O. 200-μl of each sample was applied to one of three Nytran membranes in a Bio-Dot microfiltration apparatus (BioRad). Membranes were then baked for 30 min at 80° C. under vacuum. As positive and loading controls 100 ng of mtl-1 cDNA and myosin light chain DNA were also applied to each membrane, respectively.
Three pools of single-stranded ^32P-labeled cDNA probes were prepared from poly(A^+) RNA isolated from control, 8 h and 24 h cadmium-treated nematodes. cDNAs were generated from a mixture of mRNAs in a 25 μl reverse transcriptase reactions which contained 2 μg poly(A^+) RNA, 1 μg oligo (dT)18 primer, reverse transcriptase buffer, 800 μM DATP, dGTP and dTTP, 4.5 μM dCTP, 100 μCi [α-^32P]dCTP (3000 Ci/mmol), 20 units RNase inhibitor and 200 units Moloney murine leukemia virus reverse transcriptase. The reaction mixture was incubated at 37° C. for 1 h, then at 95° C. for 5 min to terminate the reaction. Unincorporated nucleotides were separated from the labeled cDNAs by using a G-25 spin column (Boehringer Mannheim). Equal amounts (5×10^6 cpm/ml) of each radioactive cDNA mixture were heat-denatured and then hybridized separately to one of the three membranes at 42° C. for 16 h in hybridization buffer. […]

[1] = 8 hours, 100 μM CdCl2, relative to non-exposed, normalized to myosin light chain mRNA
[2] = 24 hours, 100 μM CdCl2, relative to non-exposed, normalized to myosin light chain mRNA

## [Cl][Cd][Cl] [cadmium, CdCl2]
Clone DDRT23, 24 hours, 100 μM CdCl2, relative to non-exposed, normalized to myosin light chain mRNA
  Fold-change in mRNA levels following cadmium exposure, DDRT23: 3.0 fold
[1]
  Fold-change in mRNA levels following cadmium exposure, DDRT25: 3.9 fold
  Fold-change in mRNA levels following cadmium exposure, DDRT26: 4.4 fold
  Fold-change in mRNA levels following cadmium exposure, DDRT28: 1.7 fold
  Fold-change in mRNA levels following cadmium exposure, DDRT29: 3.9 fold
  Fold-change in mRNA levels following cadmium exposure, DDRT30: 2.7 fold
  Fold-change in mRNA levels following cadmium exposure, DDRT32: 2.6 fold
  Fold-change in mRNA levels following cadmium exposure, DDRT33D: 3.1 fold
  Fold-change in mRNA levels following cadmium exposure, DDRT33U: 3.0 fold
  Fold-change in mRNA levels following cadmium exposure, DDRT34: 2.4 fold
  Fold-change in mRNA levels following cadmium exposure, DDRT35: 1.6 fold
  Fold-change in mRNA levels following cadmium exposure, DDRT40: 1.9 fold
  Fold-change in mRNA levels following cadmium exposure, DDRT41: 2.2 fold
  Fold-change in mRNA levels following cadmium exposure, DDRT48: 2.1 fold
  Fold-change in mRNA levels following cadmium exposure, DDRT50: 2.2 fold
  Fold-change in mRNA levels following cadmium exposure, VL9: −1.7 fold
  Fold-change in mRNA levels following cadmium exposure, VL11: 3.2 fold
  Fold-change in mRNA levels following cadmium exposure, VL19: 3.6 fold
  Fold-change in mRNA levels following cadmium exposure, VL20: 2.8 fold
  Fold-change in mRNA levels following cadmium exposure, VL21: 2.2 fold
[2]
  Fold-change in mRNA levels following cadmium exposure, DDRT25: 4.4 fold
  Fold-change in mRNA levels following cadmium exposure, DDRT26: 4.7 fold
  Fold-change in mRNA levels following cadmium exposure, DDRT28: 1.8 fold
  Fold-change in mRNA levels following cadmium exposure, DDRT29: 4.4 fold
  Fold-change in mRNA levels following cadmium exposure, DDRT30: 3.1 fold
  Fold-change in mRNA levels following cadmium exposure, DDRT32: 2.4 fold
  Fold-change in mRNA levels following cadmium exposure, DDRT33D: 3.5 fold
  Fold-change in mRNA levels following cadmium exposure, DDRT33U: 3.5 fold
  Fold-change in mRNA levels following cadmium exposure, DDRT34: 3.0 fold
  Fold-change in mRNA levels following cadmium exposure, DDRT35: 1.9 fold
  Fold-change in mRNA levels following cadmium exposure, DDRT40: 2.3 fold
  Fold-change in mRNA levels following cadmium exposure, DDRT41: 2.1 fold
  Fold-change in mRNA levels following cadmium exposure, DDRT48: 2.6 fold
  Fold-change in mRNA levels following cadmium exposure, DDRT50: 2.2 fold
  Fold-change in mRNA levels following cadmium exposure, VL9: −2.3 fold
  Fold-change in mRNA levels following cadmium exposure, VL11: 6.1 fold
  Fold-change in mRNA levels following cadmium exposure, VL19: 5.0 fold
  Fold-change in mRNA levels following cadmium exposure, VL20: 5.0 fold
  Fold-change in mRNA levels following cadmium exposure, VL21: 2.5 fold
Clone DDRT38, 24 hours, 100 μM CdCl2, relative to non-exposed, normalized to myosin light chain mRNA
  Fold-change in mRNA levels following cadmium exposure, DDRT38: 1.8 fold
Clone VL3, 24 hours, 100 μM CdCl2, relative to non-exposed, normalized to myosin light chain mRNA
  Fold-change in mRNA levels following cadmium exposure, VL3: 2.4 fold
Clone VL12 (mtl-1), 24 hours, 100 μM CdCl2, relative to non-exposed, normalized to myosin light chain mRNA
  Fold-change in mRNA levels following cadmium exposure, VL12: 5.2 fold
Following cadmium exposure
  decrease in level of expression, a single clone: ~2 fold
  increase in steady-state level of expression, forty-eight of the clones: 2-6 fold
In response to cadmium, time not stated
  decrease in level of expression for VL9: ~2 fold
